Results published in patent publication US9238688B2 (priority 2010, dated 2016).

What was measured:
[1] = test system: hyaluronic acid synthase gene HAS3; assay: Expression of hyaluronic acid synthase gene HAS3, keratinocyte monolayer culture, real-time PCR; format: cell-based; settings: human epidermal keratinocytes; final retinol concentration 10^−6 M or 10^−5 M; 6, 24 or 48 hours; Experimental Example 1
Protocol: (§1) Human epidermal keratinocytes (Cell Application Inc.) were seeded in a 24-well plate containing a human epidermal keratinocytes growth medium (Cell Application Inc.) so that the number of cells contained in a well was 1.5×10^5, and were cultured under the condition of 5% CO2-95% air and at 37° C. for about two days until the cells reached confluence.
(§2) Meanwhile, each tested substance was dissolved in a small amount of dimethylformamide and added to the medium, and the concentration of dimethylformamide in all experiments was adjusted to 0.1 wt %.
(§3) After culturing for a given time period, the keratinocytes were recovered and RNA was extracted therefrom. Then, the gene expression of hyaluronic acid synthases HAS2 and HAS3 were assessed by real-time PCR using the following primer pairs (Takara Bio Inc.): […]

[2] = test system: hyaluronic acid synthase gene HAS2; assay: Expression of hyaluronic acid synthase gene HAS2, keratinocyte monolayer culture, real-time PCR; format: cell-based; settings: human epidermal keratinocytes; final retinol concentration 10^−6 M or 10^−5 M; 6, 24 or 48 hours; Experimental Example 1
Protocol: as §1, §2, §3

## CC(=O)OC/C=C(C)/C=C/C=C(C)/C=C/C1=C(C)CCCC1(C)C [acetic acid retinol ester]
[1]
  level of HAS3 gene expression (ratio to PPIA, control after 6 hours = 1): lower levels of gene expression as compared to the retinol-modified collagen
[2]
  level of HAS2 gene expression (ratio to PPIA, control after 6 hours = 1): lower levels of gene expression as compared to the retinol-modified collagen

## CCCCCCCCCCCCCCCC(=O)OC/C=C(C)/C=C/C=C(C)/C=C/C1=C(C)CCCC1(C)C [palmitic acid retinol ester]
[1]
  level of HAS3 gene expression (ratio to PPIA, control after 6 hours = 1): lower levels of gene expression as compared to the retinol-modified collagen
[2]
  level of HAS2 gene expression (ratio to PPIA, control after 6 hours = 1): lower levels of gene expression as compared to the retinol-modified collagen
